{"source": "patent EP0200607A1", "about": "“Surfactant chlorhexidine salts and compositions” (PIERRE FABRE COSMETIQUE, priority 1985, dated 1986)", "key": {"[1]": {"test_system": "Pseudomonas aeruginosa A 22", "test": "Antiseptic activity by dilution in liquid medium (MIC and MBC), with anionic surfactants", "assay_type": "cell-based", "conditions": "Pseudomonas aeruginosa A 22, 10^6 germes/ml", "text": "de dilutions en milieu liquide, selon Peterson, Lance R., Denny, Aiken E., Gerding, Dale N. and Hall, Wendell H. :\"determination of tolerance to antibiotic bactericidal on activity on Kivby-Baver susceptibility plates Am.J.Clin.Pathol. 74 : 645-650,1980.\nLe but de la méthode est de déterminer la plus petite quantité d'un produit X qui exerce sur 10^6 cellules d'une flore bactérienne donnée une activité antiseptique de type bactériostatique ou bactéricide.\nLa méthode de dilution en milieu liquide permet de déterminer la CMI (concentration minimale inhibitrice-bacté- riostase) et la CMB (concentration minimale léthale-bactéricidie).\n• . pipettes de 1 ml graduées au 1/100 en polystyrène cristal stériles, . pipettes Pasteur stériles, • . flacons en verre stériles de 30 ml, 100 ml, • . tubes à essai en verre PYREX stériles 65 x 13 mm, 160 x 16 mm, 25 x 200 mm et 18 x 180 mm, • . boîtes de Pétri, polystyrène cristal- stériles de 90 mm de diamètre, • . lumétron, colorimètre réf.401, • les milieux de culture liquides et gélosés sont adaptés à la croissance de l'espèce de microorganisme en test Pseudomonas aeruginosa. Un témoin de fertilité des milieux liquides et gélosés est réalisé à chaque expérimentation.\nLes différents produits testés sont des solutions aqueuses d'alkyl éthoxycarboxylate de chlorhexidine (3%) et contenant un pourcentage variable de tensioactifs anioniques. Les solutions mères sont des dilutions au 1/10e des solutions précédentes.\nPseudomonas aeruginosa est ensemencé en stries sur une pente de gélose Tryptone Soya (CM 131 OXOID). On incube de 18 à 24 Heures à 32-35°C.\nPour le Pseudomonas aeruginosa, une transmission de 90 % représente une valeur de 2-10^8 germes/ml donc une dilution au 1/100e est nécessaire.\nOn prépare sur un portoir une série de tubes à hémolyse 65 x 13 mm stériles.\nChaque tube reçoit 1 ml de milieu de culture liquide dont la composition est adaptée à la croissance du germe (bouillon BN pour Pseudomonas aéruginosa).\nLe tube reçoit 1 ml de la solution mère du produit à analyser. On homogénéise puis effectue des passages successifs au 1/2 jusqu'au dernier tube. Le volume dans tous les tubes est alors de 1 ml.\nToutes les dilutions sont ensemencées avec 1 ml de milieu de culture titrant […] par ml. Dans chaque tube on a alors 1.10^6 germes par ml.\nUn tube sans antiseptique permet d'effectuer un dénombrement des microorganismes effectivement introduits dans le test et permet de s'assurer de la vitalité de la souche.\nDénombrement par la méthode de dilution-incorporation et incubation à l'étuve pendant 48 heures à 37°C.\nLa concentration minimale inhibitrice est la plus petite quantité de produit qui empêche le développement microbien (jugé à l'oeil) ;elle est exprimée en microgramme de chlorhexidine base par millilitre. […]"}, "[2]": {"test": "Acute toxicity, oral LD50", "assay_type": "in vivo", "text": "(§1) La toxicité de ce nouveau sel de CHX a été vérifiée comparativement au tensioactrf sous forme acide de départ, au tensioactif neutralisé par l'ion sodium, à la CHX base et à l'association tensioactif neutralisé par l'ion sodium + CHX base, car il est bien connu que la toxicité d'une molécule peut être potentialisée par la présence d'un tensioactif.\n(§2) Deux tests ont été utilisés : • 1- l'évaluation de la DL 50 par voie orale, • 2- l'évaluation de la DL 50 par voie intra-péritonéale."}, "Solubility (qualitative)": {"test": "Solubility (qualitative)", "conditions": "water"}, "[3]": {"test": "Acute toxicity, intraperitoneal LD50", "assay_type": "in vivo", "text": "as §1, §2"}, "[4]": {"set-up": "species or system cobaye", "conditions": "in vivo", "text": "On peut penser que cette différence de pouvoir moussant est apportée par le solvant propylèneglycol […] Tolérance : On s'est contenté de vérifier la bonne tolérance cutanée et oculaire du tensioactif acide éthoxycarboxylique et du nouveau sel de CHX de cet exemple, pour bien démontrer la parfaite inocuité de ce nouveau produit.\n. tolérance cutanée cobaye :\nOn voit d'après ces résultats que cette tolérance est meilleure sur ce test pour le nouveau sel de CHX que pour l'acide éthoxycarboxylique. La différence d'épaisseur de pli de peau mesuré le 4ème jour d'application quotidienne est de 0,23 contre 1,2 mm, l'érythème de 1,4 contre 4."}, "[5]": {"test": "Foaming power (10 inversions of a stoppered cylinder)", "assay_type": "physicochemical", "conditions": "50 ml of a 10 % active matter solution, 100 ml cylinder, 23°C", "method": "_Le_pouvoir moussant de l'acide éthoxycarboxylique et de l'éthoxycarboxylate de CHX a été vérifié, et ce comparativement.\nA cet effet, on prépare une solution de tensioactif à 10% de matière active. On prélève 50 ml de cette solution que l'on introduit dans une éprouvette de 100 ml (diamètre intérieur 26 mm et hauteur 235 mm). On bouche hermétiquement cette éprouvette et on la soumet à 10 retournements successifs pour provoquer la formation de mousse. Cette manipulation se fait à 23°C (température de la solution)."}, "[6]": {"set-up": "species or system lapin", "conditions": "in vivo", "text": ". tolérance cutanée lapin :"}, "[7]": {"conditions": "in vivo"}, "[8]": {"test_system": "Pseudomonas aeruginosa A 22", "test": "Antibacterial properties (Tableau I), Pseudomonas aeruginosa", "assay_type": "cell-based", "text": "(§3) Des expérimentations ont été conduites afin de vérifier si ce nouveau sel de CHX possédait une bonne activité antiseptique comparativement au digluconate de CHX, sel de CHX des plus connus et largement utilisé et ce comparativement à l'acide AEC, ce dernier pouvant avoir par lui-même des propriétés antiseptiques.\n(§4) L'activité de ces trois produits a été testée sur quatre germes […] et il a été constaté que non seulement on obtenait une activité voisine de celle du digluconate de CHX, mais que de plus, cette activité était plus importante dans trois cas (voir tableau I)."}, "Staphylo-coque aureus": {"test_system": "Staphylo-coque aureus", "test": "Antibacterial properties (Tableau I), Staphylococcus aureus", "assay_type": "cell-based", "text": "as §3, §4"}, "[9]": {"test_system": "Escherichia coli ATCC 10536", "test": "Antibacterial properties (Tableau I), Escherichia coli", "assay_type": "cell-based", "text": "as §3, §4"}, "Candida albicans": {"test_system": "Candida albicans", "test": "Antibacterial properties (Tableau I), Candida albicans", "assay_type": "cell-based", "text": "as §3, §4"}}, "data": [{"compound": "N=C(NCCCCCCNC(=N)NC(=N)Nc1ccc(Cl)cc1)NC(=N)Nc1ccc(Cl)cc1", "note": "[Digluconate de CHX, Digluconate de chlorhexidine]", "values": [{"measurement": "MIC", "setting": "[1]; A22, aqueous solutions with 3% alkyl éthoxycarboxylate de chlorhexidine, read-out: CMI", "result": 8.75, "unit": "µg/mL"}, {"measurement": "MBC", "setting": "[1]; A22, sub-culture on neutralising medium, read-out: CMB", "result": 8.75, "unit": "µg/mL"}]}, {"compound": "[H]/N=C(\\N/C(=N/[H])NCCCCCCNC(=N)NC(=N)Nc1ccc(Cl)cc1)Nc1ccc(Cl)cc1", "note": "[chlorhexidine base, 1,6-di-(p-chlorophényl-biguanido) hexane]", "values": [{"measurement": "DL 50 voie orale", "setting": "[2]", "result": "pas de mortalité"}, {"measurement": "solubilité dans l'eau", "setting": "Solubility (qualitative)", "result": "insoluble dans l'eau"}, {"measurement": "LD50", "setting": "[3]; in vivo, ip, read-out: DL 50 voie intrapérito-néale", "result": "47 to 100", "unit": "mg/kg"}]}, {"compound": "Alkyl éthoxycarboxy-late de sodium", "values": [{"measurement": "DL 50 voie orale", "setting": "[2]", "result": "7,5 g/kg"}]}, {"compound": "Alkyl éthoxycarboxylate de chlorhexidine [AEC de CHX]", "values": [{"measurement": "CMI", "setting": "[1]; aqueous solutions with 3% alkyl éthoxycarboxylate de chlorhexidine", "result": "8 microgramme de chlorhexidine base par millilitre"}, {"measurement": "CMB", "setting": "[1]; sub-culture on neutralising medium", "result": "8 microgramme de chlorhexidine base par millilitre"}, {"measurement": "différence d'épaisseur de pli de peau", "setting": "[4]", "result": "0,23 mm"}, {"measurement": "érythème", "setting": "[4]", "result": "1,4"}, {"measurement": "Pouvoir moussant (mousse)", "setting": "[5]", "result": 16, "unit": "mL"}, {"measurement": "indice d'irritation primaire", "setting": "[6]", "result": "0,25"}]}, {"compound": "alkyl éthoxycarboxylique acide [AEC acide]", "values": [{"measurement": "tolérance oculaire", "setting": "[7]", "result": "la mieux tolérée"}, {"measurement": "Propriétés antibactériennes", "setting": "[8]", "result": "6,2 mg/ml"}, {"measurement": "Propriétés antibactériennes", "setting": "Staphylo-coque aureus", "result": "1,56 mg/ml"}, {"measurement": "Propriétés antibactériennes", "setting": "[9]", "result": "12,5 mg/ml"}, {"measurement": "différence d'épaisseur de pli de peau", "setting": "[4]", "result": "1,2 mm"}, {"measurement": "érythème", "setting": "[4]", "result": 4}, {"measurement": "Pouvoir moussant (mousse)", "setting": "[5]", "result": 26, "unit": "mL"}, {"measurement": "indice d'irritation primaire", "setting": "[6]", "result": "0,75"}, {"measurement": "Propriétés antibactériennes", "setting": "Candida albicans", "result": 50, "unit": "mg/mL"}, {"measurement": "DL 50 voie intrapérito-néale", "setting": "[3]", "result": "0,5 g/kg"}]}]}
